Key:
Assay type in all cases: in vivo
Laodelphax striatella [1] = experiment: Pest control test of Laodelphax striatella, foliar spray on rice seedling; details: Laodelphax striatellus, 144 h; foliar treatment at 1.25 ppm; second instar larvae; six days after release; read-out: mortality of larvae
Procedure: Test Example 6 Pest Control Test of Laodelphax striatella
A drug solution of the compound of the present invention at a predetermined concentration, which had been prepared so as to be a 50% acetone water (0.05% Tween20 available), was foliar sprayed to a rice seedling in pot culture. After an air drying process, second instar larvae were released thereto. Thereafter, the larvae were left to stand in a thermostatic chamber (16 hours of light period-8 hours of dark period) at 25° C. […] Test in duplicate.
(§1) Mortality of larvae(%)={number of dead larvae/(number of survived larvae+number of dead larvae)}×100

Aphis gossypii = experiment: Pest control test of Aphis gossypii, cucumber leaf disk foliar spray; details: for mortality at 100 ppm / mortality at 500 ppm: Aphis gossypii, 72 h, first instar larvae, three days after release; for mortality at 100 ppm: foliar treatment at 100 ppm, read-out: mortality of larvae; for mortality at 500 ppm: foliar treatment at 500 ppm; for % Mortality, Test Example3 Aphis gossypii: foliar treatment
Procedure: Test Example 3 Pest Control Test of Aphis gossypii
A leaf disk having a diameter of 2.0 cm was cut out from a cucumber in pot culture, and a drug solution of the compound of the present invention at a predetermined concentration, which had been prepared so as to be a 50% acetone water (0.05% Tween20 available), was sprayed to the leaf disk. After an air drying process, first instar larvae were released thereto. Thereafter, the larvae were left to stand in a thermostatic chamber (16 hours of light period-8 hours of dark period) at 25° C. […] Test in duplicate.
as §1

Plutella xylostella = Plutella xylostella control test, cabbage leaf disk foliar spray; details: for mortality at 100 ppm / mortality at 500 ppm: Plutella xylostella, 72 h, second instar larvae, three days after release, read-out: mortality of larvae; for mortality at 100 ppm: foliar treatment at 100 ppm; for mortality at 500 ppm: foliar treatment at 500 ppm; for % Mortality, Test Example1 Plutella xylostella: foliar treatment
Procedure: Test Example 1 Plutella xylostella Control Test
A leaf disk having a diameter of 5.0 cm was cut out from a cabbage in pot culture, and a drug solution of the compound of the present invention at a predetermined concentration, which had been prepared so as to be a 50% acetone water (0.05% Tween20 available), was sprayed to the leaf disk. After an air drying process, second instar larvae were released thereto. Thereafter, the larvae were left to stand in a thermostatic chamber (16 hours of light period-8 hours of dark period) at 25° C. […] Test in duplicate.
mortality larvae(%)={number of dead larvae/(number of survived larvae+number of dead larvae)}×100

Laodelphax striatella [2] = experiment: Pest control test of Laodelphax striatella, soil irrigation treatment of rice seedling; details: soil irrigation treatment
Excerpt: <Soil Irrigation Treatment Test>
Test Example 10 Pest Control Test of Laodelphax striatellua
A rice seedling in pot culture was subjected to soil irrigation treatment with a drug solution of the compound of the present invention at a predetermined concentration, which had been prepared so as to be a 10% acetone water. Three days after the treatment, ten second instar larvae of Laodelphax striatella were each released thereto. Thereafter, the larvae were left to stand in a thermostatic chamber (16 hours of light period-8 hours of dark period) at 25° C. […] The test was performed in duplicate.
as §1

[3] = tested on: Trigonotylus caelestialium; experiment: Pest control test of Trigonotylus caelestialium, wheat seedling dipping
Excerpt: Test Example 8 Pest Control Test of Trigonotylus caelestialium
Wheat seedling leaves and stems four days after the dissemination of seedlings were dipped for 30 seconds in a drug solution of the compound of the present invention at a predetermined concentration, which had been prepared so as to be a 50% acetone water (0.05% Tween20 available). After an air drying process, the wheat seedling leaves and stems were placed into a glass tube, and two second instar larvae of Trigonotylus caelestialium were released to the same glass tube. After the larvae were released, the tube was lidded to leave the larvae to stand in a thermostatic chamber at 25° C. In order to supply water to the wheat during the test, water was given to the wheat from the bottom of the glass tube.
as §1

Spodoptera litura = experiment: Pest control test against Spodoptera litura, cabbage leaf disk foliar spray; details: for % Mortality, Test Example2 Spodoptera litura: foliar treatment, 100 ppm
Procedure: Test Example 2 Pest Control Test Against Spodoptera litura
A leaf disk having a diameter of 5.0 cm was cut out from a cabbage in pot culture, and a drug solution of the compound of the present invention at a predetermined concentration, which had been prepared so as to be a 50% acetone water (0.05% Tween20 available), was sprayed to the leaf disk. After an air drying process, third instar larvae were released thereto. Thereafter, the larvae were left to stand in a thermostatic chamber (16 hours of light period-8 hours of dark period) at 25° C. […] Test in duplicate.
as §1

Nilaparvata lugens = experiment: Pest control test of Nilaparvata lugens, soil irrigation treatment; details: soil irrigation treatment
Procedure: Test Example 12 Pest Control Test of Nilaparvata lugens
A rice seedling in pot culture was subjected to soil irrigation treatment with a drug solution of the compound of the present invention at a predetermined concentration, which had been prepared so as to be a 10% acetone water. Three days after the treatment, ten second instar larvae of Nilaparvata lugens were each released thereto. Thereafter, the larvae were left to stand in a thermostatic chamber (16 hours of light period-8 hours of dark period) at 25° C. […] The test was performed in duplicate.
as §1

[4] = tested on: Frankliniella occidentalis; experiment: Pest control test of Frankliniella occidentalis, kidney bean leaf disk foliar spray; details: for % Mortality, Test Example7 Frankliniella occidentalis: foliar treatment, 100 ppm
Excerpt: Test Example 7 Pest Control Test of Frankliniella occidentalis
A leaf disk having a diameter of 2.8 cm was cut out from a kidney bean in pot culture, and a drug solution of the compound of the present invention at a predetermined concentration, which had been prepared so as to be a 50% acetone water (0.05% Tween20 available), was sprayed to the leaf disk. After an air drying process, first instar larvae were released thereto. Thereafter, the larvae were left to stand in a thermostatic chamber (16 hours of light period-8 hours of dark period) at 25° C. […] Test in duplicate.
as §1

[5] = tested on: Nilaparvata lugens exhibiting drug resistance to imidacloprid; details: soil irrigation; for Insecticidal effects against Nilaparvata lugens (mortality of larvae %), Drug resistant populations three days after the treatment: Rate 0.05 mg/pot; for insecticidal effects against drug resistant Nilaparvata lugens: imidacloprid-resistant; for mortality of larvae against drug resistant populations compared with susceptible populations of Nilaparvata lugens: imidacloprid-resistant vs susceptible
Procedure: Test Example 18 Pest Control Test of Drug-Resistant Nilaparvata lugens
(§2) A rice seedling in pot culture was subjected to soil irrigation treatment with a drug solution of the compound of the present invention at a predetermined concentration, which had been prepared so as to be a 10% acetone water. […] Thereafter, the larvae were left to stand in a thermostatic chamber (16 hours of light period-8 hours of dark period) at 25° C. […] The test was performed in duplicate.
as §1
(§3) Further, for the origin of test pests, bugs collected outdoors within the Kumamoto prefecture in 2007 as the drug resistant Nilaparvata lugens, and bugs collected within the Kagoshima prefecture and then successively reared indoors for a long time as the imidacloprid susceptible populations of Nilaparvata lugens were used.

[6] = tested on: imidacloprid susceptible populations of Nilaparvata lugens; experiment: Soil irrigation test, imidacloprid susceptible populations of Nilaparvata lugens; details: Rate 0.05 mg/pot
Procedure: as §2, §1
Further, for comparison, the test against some population of Nilaparvata lugens which is highly susceptible to imidacloprid was performed by the same method as described above, and the results thereof are shown in Table 43.
as §3

Musca domestica = experiment: Pest control test of Musca domestica adults, sucrose pledget; details: 50 ppm in 40% sucrose liquid; four days after release
Procedure: Test Example 21 Pest Control Test of Musca domestica
A drug solution of the compound of the present invention, which had been adjusted to be 50 ppm with a 40% sucrose liquid, was adsorbed on a pledget, and the pledget was put into a vial. Two adults reared indoors were released thereto. Thereafter, the adults were left to stand indoors at room temperature of 25° C. […] When two adults were all agonized in death, it was judged to be effective.

Row | SMILES | mortality at 1.25 ppm (Laodelphax striatella [1]) | mortality at 100 ppm (Aphis gossypii) | mortality at 500 ppm (Aphis gossypii) | mortality at 100 ppm (Plutella xylostella) | mortality at 500 ppm (Plutella xylostella) | % Mortality, Test Example 10 Laodelphax striatella (Laodelphax striatella [2]; 0.005 mg/pot) | % Mortality, Test Example 10 Laodelphax striatella (Laodelphax striatella [2]; 0.01 mg/pot) | % Mortality, Test Example 10 Laodelphax striatella (Laodelphax striatella [2]; 0.05 mg/pot) | % Mortality, Test Example8 Trigonotylus caelestialium ([3]; 10 ppm) | % Mortality, Test Example2 Spodoptera litura (Spodoptera litura) | % Mortality, Test Example 12 Nilaparvata lugens (Nilaparvata lugens; 0.01 mg/pot) | % Mortality, Test Example 12 Nilaparvata lugens (Nilaparvata lugens; 0.05 mg/pot) | % Mortality, Test Example7 Frankliniella occidentalis [4] | % Mortality, Test Example3 Aphis gossypii (Aphis gossypii; 1.25 ppm) | % Mortality, Test Example3 Aphis gossypii (Aphis gossypii; 5 ppm) | % Mortality, Test Example1 Plutella xylostella (Plutella xylostella; 20 ppm) | % Mortality, Test Example1 Plutella xylostella (Plutella xylostella; 100 ppm) | Insecticidal effects against Nilaparvata lugens (mortality of larvae %), Drug resistant populations three days after the treatment [5] | insecticidal effects against drug resistant Nilaparvata lugens [5] | activity against adults (effective when two adults were all agonized in death) (Musca domestica) | also measured
1 | O=C(ON=C(/N=c1\ccccn1Cc1ccc(Cl)nc1)C(F)(F)F)c1ccccc1 [Compound 1-519, N-(benzoyloxy)-N-[1-((6-chloropyridin-3-yl)methyl)pyridin-2(1H)-ylidene]-2,2,2-trifluoroacetimidamide] | ≥ 80% | ≥ 80% | ≥ 80% | ≥ 80% | ≥ 80% |  |  |  |  |  |  |  |  |  |  |  |  |  |  |  | 
2 | FC(F)(F)C(=S)N=c1ccccn1Cc1ccc(Br)nc1 [Compound 4-20] |  |  |  |  |  | 35% | 100% | 100% | 100% | 20% | 96% | 100% | 60% | 100% | 100% | 70% | 100% | 100% | high insecticidal effects | all the adults are agonized in death | % Mortality, Test Example8 Trigonotylus caelestialium ([3]; 2 ppm): 33%; % Mortality, Test Example8 Trigonotylus caelestialium ([3]; 50 ppm): 100%; % Mortality, Test Example3 Aphis gossypii (Aphis gossypii; 100 ppm): 100%; mortality of larvae against drug resistant populations compared with susceptible populations of Nilaparvata lugens [5]: equivalent mortality of larvae; Insecticidal effects against Nilaparvata lugens (mortality of larvae %), Susceptible populations three days after the treatment [6]: 95%
3 | ON=C(/N=c1\ccccn1Cc1ccc(Cl)nc1)C(F)(F)F [Compound 1-499, N-[1-((6-chloropyridin-3-yl)methyl)pyridin-2(1H)-ylidene]-2,2,2-trifluoro-N′-hydroxyacetimidamide] | ≥ 80% | ≥ 80% | ≥ 80% | ≥ 80% | ≥ 80% |  |  |  |  |  |  |  |  |  |  |  |  |  |  |  | mortality at 500 ppm (Spodoptera litura; Spodoptera litura, 72 h, foliar treatment at 500 ppm, third instar larvae, three days after release, read-out: mortality of larvae): ≥ 80%; mortality at 500 ppm ([4]; Frankliniella occidentalis, 72 h, foliar treatment at 500 ppm, first instar larvae, three days after release, read-out: mortality of larvae): ≥ 80%
4 | CN=C(/N=c1\ccccn1Cc1ccc(Cl)nc1)C(F)(F)F [Compound 1-42, N-[1-((6-chloropyridin-3-yl)methyl)pyridin-2(1H)-ylidene]-2,2,2-trifluoro-N′-methylacetimidamide] | ≥ 80% | ≥ 80% | ≥ 80% | ≥ 80% | ≥ 80% |  |  |  |  |  |  |  |  |  |  |  |  |  |  | all the adults are agonized in death | 
5 | Fc1cc(Cn2ccccc2=NC(=S)C(F)(F)F)cnc1Cl [Compound 5-20] |  |  |  |  |  | 26% | 52% | 95% | 17% | 60% | 90% | 100% | 50% | 55% | 100% | 100% | 100% | 100% | high insecticidal effects | all the adults are agonized in death | % Mortality, Test Example1 Plutella xylostella (Plutella xylostella; 5 ppm): 20%; mortality of larvae against drug resistant populations compared with susceptible populations of Nilaparvata lugens [5]: equivalent mortality of larvae; Insecticidal effects against Nilaparvata lugens (mortality of larvae %), Susceptible populations three days after the treatment [6]: 91%
